Reference: ChEMBL document CHEMBL5104151, “Synthesis of new pyrazolo[4,3-a]phenanthridine Pim-1 inhibitors and evaluation of their cytotoxic activity towards the MOLM-13 acute myeloid leukemia cell line” (Bioorg Med Chem Lett, 2022)

Legend:
MOLM-13 [1] = assay: Antiproliferative activity against human MOLM-13 cells measured after 72 hrs by WST-1 assay; assay type: functional, cell-based; conditions: MOLM-13, 72 h
MOLM-13 [2] = assay: Induction of apoptosis in human MOLM-13 cells incubated for 72 hrs and assessed as presence of apoptotic nuclei; assay type: functional, cell-based; conditions: MOLM-13, 72 h
[3] = target: T1, Serine/threonine-protein kinase pim-1 (Homo sapiens, UniProt P11309); assay: Inhibition of full-length human Pim-1 using RSRHSSYPAG as substrate incubated in presence of [gamma33P]ATP and assessed as residual activity at 1 uM relative to control
Target sequence in this assay (P11309 whole entry, looked up): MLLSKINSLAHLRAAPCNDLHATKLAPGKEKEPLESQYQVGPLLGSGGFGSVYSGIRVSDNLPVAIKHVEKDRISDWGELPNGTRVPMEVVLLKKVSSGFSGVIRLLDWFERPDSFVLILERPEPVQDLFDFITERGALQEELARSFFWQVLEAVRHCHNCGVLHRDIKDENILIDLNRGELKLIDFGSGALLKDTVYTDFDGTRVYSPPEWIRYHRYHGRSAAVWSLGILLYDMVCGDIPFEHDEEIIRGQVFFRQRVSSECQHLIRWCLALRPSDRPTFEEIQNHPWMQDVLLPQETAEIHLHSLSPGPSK

[4] = target: T1, Serine/threonine-protein kinase pim-1; assay: Inhibition of full-length human Pim-1 using RSRHSSYPAG as substrate incubated in presence of [gamma33P]ATP and assessed as residual activity at 10 uM relative to control
Target sequence in this assay (P11309 whole entry, looked up): as above

MOLM-13 [5] = assay: Antiproliferative activity against human MOLM-13 cells measured after 24 hrs by WST-1 assay; assay type: functional, cell-based; conditions: MOLM-13, 24 h
[6] = Cytotoxicity against rat NRK cells measured after 72 hrs by WST-1 assay; assay type: toxicity, cell-based
[7] = target: T1, Serine/threonine-protein kinase pim-1; assay: Inhibition of full-length human Pim-1 using RSRHSSYPAG as substrate incubated in presence of [gamma33P]ATP
Target sequence in this assay (P11309 whole entry): as the sequence (P11309 whole entry, looked up) above

SMILES | EC50 (MOLM-13 [1]) [nM] | EC50 (MOLM-13 [2]) [µM] | Activity [3] [%] | Activity [4] [%] | EC50 (MOLM-13 [5]) [µM] | EC50 at 72 h [6] [µM] | IC50 [7] [nM]
FC(F)(F)c1cc2[nH]ncc2c2c1ncc1ccccc12 | 1200 | > 250 | 43 | 18 |  |  | 
COC(=O)c1cc2[nH]ncc2c2c1ncc1ccccc12 | 30000 | 61 | 38 | 21 | 50 |  | 
O=[N+]([O-])c1cc2[nH]ncc2c2c1ncc1ccccc12 | 200 | 3.7 |  |  | 0.8 | > 30 | 
NC(=O)c1cc2[nH]ncc2c2c1ncc1ccccc12 | 2500 | > 250 | 23 | 7 |  |  | 125
O=C(O)c1cc2[nH]ncc2c2c1ncc1ccccc12 | 62000 | > 250 | 77 | 29 | > 250 |  | 
O=[N+]([O-])c1cc2[nH]nc(I)c2c2c1ncc1ccccc12 | 1700 | 6.6 | 8.6 | 1.4 | 3.5 | 28 | 50
C=Cc1n[nH]c2cc([N+](=O)[O-])c3ncc4ccccc4c3c12 | 1700 | 4.6 | 5.3 | 1.5 | 2.9 | 24 | 31
